# Measured values from patent US6939850B2, “Altered human interleukin-1β convertase (ICE), NEDD-2, and C. elegans ced-3 polypeptides and uses therefor” (Massachusetts Institute of Technology, priority 1992, dated 2005).
# Tests used:
# cervical motoneurons = test: Cervical motoneuron cell death in vivo; design: species or system chick
# Source text: The ability of the ICE inhibitors to block cell death in two classes of neurons whose naturally occurring death appears to be independent of target interaction was also studied. First, motoneurons in the cervical spinal cord undergo PCD between E4 and E5, with maximum levels occurring at E4.5.
# lumbar motoneurons = test: Naturally occurring lumbar motoneuron cell death in vivo; design: species or system chick
# Protocol: In the first model, embryos were treated with a single dose of an ICE inhibitor or control protease inhibitor on embryonic day 8 (E8), the time of maximum naturally occurring motoneuron cell death (Hamburger et al., J. Morph. 88:49-92 (1951)). Embryos treated in vivo with the peptide inhibitors appeared to develop normally and there were no gross abnormalties. […] 24 hours after treatment there is a similar reduction in the number of pyknotic cells and a significant increase in the number of healthy motoneurons (Table 6B). […] The ability of ICE inhibitors to block the naturally occurring cell death of interdigital cells in the developing limb was also studied. These cells undergo PCD as a means of sculpting the digits in many vertebrates. When embryos were treated with either ICE inhibitor on embryonic days, E6 and E7, there was a substantial reduction in the number of pyknotic cells between the digits of the hindlimb (FIG. 14).
# Peptides. Two peptide inhibitors of ICE, Acetyl-Tyr-Val-Ala-Asp-aldehyde (Ac-YVAD-CHO) and Acetyl-Tyr-Val-Ala-Asp-chloromethylketone (Ac-YVAD-CMK) and two control peptide inhibitors, Acetyl-Leu-Leu-Arg-aldehyde (Ac-LLR-CHO; Leupeptin) and n-tosyl-Lys-chloromethyl-ketone (Tos-Lys-CMK) were synthesized by Bachem Biosciences (King of Prussia, Pa.) and shown by thin layer chromatography and HPLC to be greater than 98% pure. […] Methods for administration of peptides to examine effects on naturally occurring motoneuron cell death in vivo. Although cell death of lumbar motoneurons occurs between E6 and E12, the peak period of death (i.e., the greatest number of pyknotic cells) occurs on E8 (Oppenheim et al., J Comp. Neurol. 177:87-112 (1978)). For these experiments, embryos were given a single administration of an agent on E8 0 hr and sacrificed 15 hours later. […] Ac-YVAD-CMK and Tos-Lys-CMK were administered in a solution of DMSO/BSA, whereas Ac-YVAD-CHO and leupeptin (Sigma) were in BSA alone. The solutions (50-100 μl) were dropped onto the highly vascularized chorioallantoic membrane through a window in the shell. The control groups included both DMSO and BSA or vehicle alone. Embryos were killed and staged by the Hamburger-Hamilton series (Hamburger and Hamilton, J. Morph. 88:49-92 (1951)). The thoraco-lumbar spinal cord was dissected, fixed in Camoys or Bouins fixative, processed for paraffin histology, serially sectioned (10-12 μm) and stained with either thionin or hematoxylin and eosin. Pyknotic motoneurons were identified based on criteria previously described (Chu-Wang and Oppenheim, J. Comp. Neurol. 177:33-58 (1978); Clarke and Oppenheim In Methods in Cell Biology Series; Cell Death; eds: Schwartz and Osborne. Academic Press. New York, N.Y. In press.) and were counted in every 10th or 20th section through the entire lumbar enlargement. The total number of pyknotic cells were then estimated by multiplying these values by 10 or 20. All cell counts were performed by individuals blinded with regard to drug treatment of the embryos. Methods for limb bud removal experiments. A unilateral limb bud removal was performed on E2 as described previously (Oppenheim et al., J. Comp. Neurol. 177:87-112 (1978)). Because induced cell death following limb removal begins on E5 (before that there is no difference in the number of motoneurons between the operated or unoperated sides) embryos were given one treatment of Ac-YVAD-CHO (40 μg) or BSA (control) at E5-0 hr and another at E5-12 hours (total peptide administered was 80 μg). Animals were killed at E6-0 hr. Methods were the same as described above except the section thickness was 6-8 μm (see Method for Administration of Peptides, above). Methods for limb bud interdigital regions. […]
# [1] = 24 hours post treatment, mean ±SD
substance,measurement,setting,value
Acetyl-Tyr-Val-Ala-Asp-aldehyde [Ac-YVAD-CHO],survival promoting effects on cervical motoneurons,cervical motoneurons; compared to control or Ac-LLR-CHO treated animals,no survival promoting effects
same,Pyknotic Cervical Motoneurons on E4.5,cervical motoneurons; mean ±SD,25.9 ± 3.4
same,Pyknotic Lumbar Motoneurons on E8,"lumbar motoneurons; 15 hours post treatment, single administration of 400 μg on E8, mean ±SD",146 ± 35
same,Healthy Motoneurons (lumbar) on E9,lumbar motoneurons; [1],"15,680 ± 684"
same,Pyknotic Motoneurons (lumbar) on E9,lumbar motoneurons; [1],150 ± 30
same,effectiveness for inhibition of motoneuron PCD in vivo,lumbar motoneurons; FIG. 13,dose dependent
